Values after ≈ are worked out from the molar mass of the structure shown.

One data set concerns daphnia. The data set can be described thus: Daphnia toxicity (EC50 daphnia). Conditions: in vivo. The text has this:
(§1) Materials for use in the invention include organosilanes, for example organosilane hydrides, organosilane alkoxides and organosilane amines. Organosilane compounds have the advantage that they are typically oil-soluble and react with water. […] Organosilanes for use in the invention preferably have a biodegradability of at least 60%. Whilst not wishing to be bound by theory, it is believed that organosilane compounds react with water and hydrolyse. The resulting chemicals then react with siliceous surfaces in the formation (e.g. the surface of silica sand), coat any sand particles, bind them in place by the formation of bridges and restrict their movement. The advantage of bifunctional organosilanes is their ability to bind two particles together.

The test system of a further data set is algae. The data set can be described thus: Algae toxicity (IC50 algae). The data set is classed as cell-based.
Source text: as §1

The test system of the next data set is fish. Put plainly: Fish toxicity (LC50 fish). As to conditions: in vivo.
Source text: as §1

The nature of data set [1]: Biodegradability according to OECD 306. As to conditions: as tested according to OECD 306.
Source text: as §1

`CCO[Si](CCCNCCC[Si](OCC)(OCC)OCC)(OCC)OCC` [DYNASYLAN bis-AMEO]: the EC50 daphnia in the data set with daphnia is over 200 µg/mL. In addition, the IC50 algae in the data set on algae stood at 125 µg/mL (≈ 294 µM). This compound gave an LC50 fish in the data set with fish of over 200 µg/mL.

With `CCO[Si](CCCN)(OCC)OCC` [DYNASYLAN AMEO, 3-amino-propyltriethoxysilane], in data set [1], the biodegradability turned out to be 67%. Further, the LC50 fish in the data set on fish amounted to 934 µg/mL (≈ 4220 µM).

For the origin of these results see patent US8596358B2, “Well treatment” (Statoil ASA, priority 2004, dated 2013).
